Test results reported in PubChem BioAssay (NCI).
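Briefly, cells in 96-well plates were exposed to five compound concentrations for 48 h, and endpoints were estimated by linear interpolation. TGI: concentration producing complete growth inhibition.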

Columns and labels:
Experiment in all cases: NCI tumour cell line growth inhibition, 48 h
TK-10 renal = tested on: TK-10 renal
RXF 393 renal = tested on: RXF 393 renal
HL-60(TB) leukemia = tested on: HL-60(TB) leukemia
COLO 205 colon = tested on: COLO 205 colon
U251 CNS = tested on: U251 CNS
SK-MEL-2 melanoma = tested on: SK-MEL-2 melanoma
HT29 colon = tested on: HT29 colon
786-0 renal = tested on: 786-0 renal
KM12 colon = tested on: KM12 colon
DMS 273 small cell lung = tested on: DMS 273 small cell lung
M19-MEL melanoma = tested on: M19-MEL melanoma
LXFL 529 NSCLC = tested on: LXFL 529 NSCLC
DMS 114 small cell lung = tested on: DMS 114 small cell lung
KM20L2 colon = tested on: KM20L2 colon
HOP-18 NSCLC = tested on: HOP-18 NSCLC
SNB-78 CNS = tested on: SNB-78 CNS
XF 498 CNS = tested on: XF 498 CNS

`COc1cc2c(cc1OC)OC(c1c(OC)ccc(OC)c1O)CC2` (stereo unspecified) showed a TGI (TK-10 renal) greater than 100 µM, a TGI (RXF 393 renal) greater than 100 µM and a TGI (HL-60(TB) leukemia) of 69.4 µM. The TGI (COLO 205 colon) was greater than 100 µM, the TGI (U251 CNS) was greater than 100 µM and the TGI (SK-MEL-2 melanoma) was greater than 100 µM. It also gave a TGI (HT29 colon) greater than 100 µM, a TGI (786-0 renal) greater than 100 µM and a TGI (KM12 colon) greater than 100 µM.

Compound `CCn1cc2c(=O)n3ncn(-c4ccc(Br)cc4)c3nc2n1` has a TGI (TK-10 renal) greater than 100 µM, a TGI (RXF 393 renal) greater than 100 µM and a TGI (HL-60(TB) leukemia) greater than 100 µM. For the same compound, the TGI (COLO 205 colon) was greater than 100 µM, the TGI (U251 CNS) was greater than 100 µM and the TGI (SK-MEL-2 melanoma) was greater than 100 µM. For the same compound, the TGI (HT29 colon) was greater than 100 µM, the TGI (786-0 renal) was greater than 100 µM and the TGI (KM12 colon) was greater than 100 µM.

`Cc1ccc(CC(Cc2ccccc2C)C(=O)O)c(C(=O)O)c1` (stereo unspecified) was tested, and the TGI (TK-10 renal) was greater than 100 µM, the TGI (RXF 393 renal) was greater than 100 µM and the TGI (HL-60(TB) leukemia) was greater than 100 µM. For the same compound, the TGI (COLO 205 colon) was greater than 100 µM, the TGI (U251 CNS) was greater than 100 µM and the TGI (SK-MEL-2 melanoma) was greater than 100 µM. It also gave a TGI (HT29 colon) greater than 100 µM, a TGI (786-0 renal) greater than 100 µM and a TGI (KM12 colon) greater than 100 µM.

`Cc1ccc(O)c(C(c2cccc(C(c3cc(C)ccc3O)c3cc(C)ccc3O)c2)c2cc(C)ccc2O)c1` was tested, and the TGI (TK-10 renal) was 3.25 µM, the TGI (RXF 393 renal) was 3.2 µM and the TGI (HL-60(TB) leukemia) was 5.31 µM. It also gave a TGI (COLO 205 colon) of 2.47 µM, a TGI (U251 CNS) of 3.32 µM and a TGI (SK-MEL-2 melanoma) of 4.61 µM. For the same compound, the TGI (HT29 colon) was 3.16 µM, the TGI (786-0 renal) was 3.18 µM and the TGI (KM12 colon) was 3.23 µM.

`CC1=C(C(=O)OC2CC3CCC2(C)C3(C)C)C2Nc3ccccc3N(C)C2O1` (stereo unspecified) gave a TGI (TK-10 renal) of 17.4 µM, a TGI (RXF 393 renal) of 18.5 µM and a TGI (HL-60(TB) leukemia) of 4.97 µM. The TGI (COLO 205 colon) was 2.4 µM, the TGI (U251 CNS) was 16.6 µM and the TGI (SK-MEL-2 melanoma) was 7.9 µM. It also gave a TGI (HT29 colon) of 3.08 µM, a TGI (786-0 renal) of 9.09 µM and a TGI (KM12 colon) of 8.67 µM.

In the case of `OC12c3ccccc3C1CCCCC2N1CCCC1` (stereo unspecified), the TGI (TK-10 renal) is reported as greater than 100 µM, the TGI (DMS 273 small cell lung) is reported as greater than 100 µM and the TGI (M19-MEL melanoma) is reported as greater than 100 µM. The TGI (LXFL 529 NSCLC) was greater than 100 µM, the TGI (DMS 114 small cell lung) was greater than 100 µM and the TGI (RXF 393 renal) was greater than 100 µM. It also gave a TGI (HL-60(TB) leukemia) greater than 100 µM, a TGI (COLO 205 colon) greater than 100 µM and a TGI (U251 CNS) greater than 100 µM. The TGI (SK-MEL-2 melanoma) was greater than 100 µM, the TGI (KM20L2 colon) was greater than 100 µM and the TGI (HT29 colon) was greater than 100 µM. The TGI (786-0 renal) was greater than 100 µM, the TGI (HOP-18 NSCLC) was greater than 100 µM and the TGI (SNB-78 CNS) was greater than 100 µM. The TGI (KM12 colon) was greater than 100 µM.

Compound `CCOC1CN=C(Nc2cccc3ccccc23)S1` (stereo unspecified) has a TGI (TK-10 renal) greater than 10 µM, a TGI (RXF 393 renal) greater than 10 µM and a TGI (HL-60(TB) leukemia) greater than 10 µM. It also gave a TGI (COLO 205 colon) greater than 10 µM, a TGI (U251 CNS) greater than 10 µM and a TGI (SK-MEL-2 melanoma) greater than 10 µM. For the same compound, the TGI (HT29 colon) was greater than 10 µM, the TGI (786-0 renal) was greater than 10 µM and the TGI (KM12 colon) was greater than 10 µM.

Work on `COc1ccc(CNc2cnc3cc(N)ccc3n2)cc1` yielded a TGI (TK-10 renal) greater than 100 µM, a TGI (DMS 273 small cell lung) greater than 100 µM and a TGI (M19-MEL melanoma) greater than 100 µM. It also gave a TGI (LXFL 529 NSCLC) greater than 100 µM, a TGI (DMS 114 small cell lung) greater than 100 µM and a TGI (RXF 393 renal) greater than 100 µM. The TGI (HL-60(TB) leukemia) was greater than 100 µM, the TGI (COLO 205 colon) was greater than 100 µM and the TGI (U251 CNS) was greater than 100 µM. The TGI (SK-MEL-2 melanoma) was greater than 100 µM, the TGI (KM20L2 colon) was greater than 100 µM and the TGI (XF 498 CNS) was greater than 100 µM. The TGI (HT29 colon) was greater than 100 µM, the TGI (786-0 renal) was greater than 100 µM and the TGI (SNB-78 CNS) was greater than 100 µM. The TGI (KM12 colon) was greater than 100 µM.

For `N#Cc1ccc(C(O)C(F)(F)c2nc3ccccc3o2)cc1` (stereo unspecified), the TGI (TK-10 renal) was greater than 100 µM, the TGI (RXF 393 renal) was greater than 100 µM and the TGI (HL-60(TB) leukemia) was greater than 100 µM. For the same compound, the TGI (COLO 205 colon) was greater than 100 µM, the TGI (U251 CNS) was greater than 100 µM and the TGI (SK-MEL-2 melanoma) was greater than 100 µM. The TGI (HT29 colon) was greater than 100 µM, the TGI (786-0 renal) was greater than 100 µM and the TGI (KM12 colon) was greater than 100 µM.

`CC[C@]12C=CCN3CC[C@@]4(c5cc(N=O)c(OC)cc5N(C)[C@H]4[C@@](O)(C(=O)OC)[C@@H]1OC(C)=O)[C@@H]32` was tested, and the TGI (TK-10 renal) was greater than 100 µM, the TGI (RXF 393 renal) was greater than 100 µM and the TGI (HL-60(TB) leukemia) was greater than 100 µM. It also gave a TGI (COLO 205 colon) greater than 100 µM, a TGI (U251 CNS) of 33.3 µM and a TGI (SK-MEL-2 melanoma) of 41.7 µM. For the same compound, the TGI (HT29 colon) was greater than 100 µM, the TGI (786-0 renal) was greater than 100 µM and the TGI (KM12 colon) was greater than 100 µM.

`CC1CC(N)=C(C#N)C1(C#N)C#N` (stereo unspecified) showed a TGI (TK-10 renal) greater than 100 µM, a TGI (RXF 393 renal) greater than 100 µM and a TGI (HL-60(TB) leukemia) greater than 100 µM. For the same compound, the TGI (COLO 205 colon) was greater than 100 µM, the TGI (U251 CNS) was greater than 100 µM and the TGI (SK-MEL-2 melanoma) was greater than 100 µM. For the same compound, the TGI (HT29 colon) was greater than 100 µM, the TGI (786-0 renal) was greater than 100 µM and the TGI (KM12 colon) was greater than 100 µM.

`COc1cc(OC)cc(OCc2nc3cc(C(F)(F)F)ccc3nc2-c2ccccc2)c1` was tested, and the TGI (TK-10 renal) was greater than 100 µM, the TGI (RXF 393 renal) was greater than 100 µM and the TGI (HL-60(TB) leukemia) was greater than 100 µM. For the same compound, the TGI (COLO 205 colon) was greater than 100 µM, the TGI (U251 CNS) was greater than 100 µM and the TGI (SK-MEL-2 melanoma) was greater than 100 µM. It also gave a TGI (HT29 colon) greater than 100 µM, a TGI (786-0 renal) greater than 100 µM and a TGI (KM12 colon) greater than 100 µM.

For `Cc1ccc(C)n1-c1ccccc1C1C=Cn2c(=O)nnc3c(OC(C)C)c(OC(C)C)c(O)c1c32` (stereo unspecified), the TGI (TK-10 renal) was greater than 100 µM, the TGI (RXF 393 renal) was 77.3 µM and the TGI (HL-60(TB) leukemia) was 59.6 µM. It also gave a TGI (COLO 205 colon) of 27.7 µM, a TGI (U251 CNS) greater than 100 µM and a TGI (SK-MEL-2 melanoma) greater than 100 µM. For the same compound, the TGI (HT29 colon) was 43.6 µM, the TGI (786-0 renal) was 65.7 µM and the TGI (KM12 colon) was greater than 100 µM.

In the case of `O=C1C2C(C(=O)N1c1ccccc1)C1(c3ccccc3)CCC2(C(=O)c2ccccc2)O1` (stereo unspecified), the TGI (TK-10 renal) is reported as greater than 10 µM, the TGI (RXF 393 renal) is reported as greater than 10 µM and the TGI (HL-60(TB) leukemia) is reported as greater than 10 µM. The TGI (COLO 205 colon) was greater than 10 µM, the TGI (U251 CNS) was greater than 10 µM and the TGI (SK-MEL-2 melanoma) was greater than 10 µM. For the same compound, the TGI (HT29 colon) was greater than 10 µM, the TGI (786-0 renal) was greater than 10 µM and the TGI (KM12 colon) was greater than 10 µM.

With `O=c1nc2n3c4c(cccc4nc-2c(=O)[nH]1)CCC3` the TGI (TK-10 renal) was greater than 100 µM, the TGI (RXF 393 renal) was greater than 100 µM and the TGI (HL-60(TB) leukemia) was greater than 100 µM. It also gave a TGI (COLO 205 colon) greater than 100 µM, a TGI (U251 CNS) greater than 100 µM and a TGI (SK-MEL-2 melanoma) greater than 100 µM. The TGI (HT29 colon) was greater than 100 µM, the TGI (786-0 renal) was greater than 100 µM and the TGI (KM12 colon) was greater than 100 µM.

`COc1ccc2c(c1)Cc1c(NCCN(C)C)ccc(C(=O)NCCCN(C)CCCNC(=O)c3ccc(NCCN(C)C)c4c3Nc3ccc(OC)cc3C4)c1N2` showed a TGI (TK-10 renal) of 4.88 µM, a TGI (RXF 393 renal) of 1.85 µM and a TGI (HL-60(TB) leukemia) of 1.17 µM. It also gave a TGI (COLO 205 colon) of 0.207 µM, a TGI (U251 CNS) of 1.1 µM and a TGI (SK-MEL-2 melanoma) of 0.226 µM. The TGI (HT29 colon) was 0.566 µM, the TGI (786-0 renal) was 0.985 µM and the TGI (KM12 colon) was 0.887 µM.

In the case of `COc1ccc(N=c2oc3ccccc3cc2C(N)=O)cc1`, the TGI (TK-10 renal) is reported as 46.6 µM, the TGI (RXF 393 renal) is reported as greater than 100 µM and the TGI (HL-60(TB) leukemia) is reported as greater than 100 µM. It also gave a TGI (COLO 205 colon) greater than 100 µM, a TGI (U251 CNS) greater than 100 µM and a TGI (SK-MEL-2 melanoma) greater than 100 µM. The TGI (HT29 colon) was greater than 100 µM, the TGI (786-0 renal) was 68.8 µM and the TGI (KM12 colon) was greater than 100 µM.

For `CNC(=O)C(C)NC(=O)C(Cc1ccccc1)NC(=O)c1ccccc1` (stereo unspecified), the TGI (TK-10 renal) was greater than 100 µM, the TGI (RXF 393 renal) was greater than 100 µM and the TGI (HL-60(TB) leukemia) was greater than 100 µM. The TGI (COLO 205 colon) was greater than 100 µM, the TGI (U251 CNS) was greater than 100 µM and the TGI (SK-MEL-2 melanoma) was greater than 100 µM. For the same compound, the TGI (HT29 colon) was greater than 100 µM, the TGI (786-0 renal) was greater than 100 µM and the TGI (KM12 colon) was greater than 100 µM.
